Source: PMC12631873 (Advanced Science, 2025)
Square brackets hold non-standard residues; d marks the D form. Peptide text beside a SMILES is read from it. * marks the point of attachment. X1 = CN1/C(=C/C=C/C=C/C2=[N+](CCCCCC(=O)*)c3ccc(S(=O)(=O)[O-])cc3C2(C)C)C(C)(C)c2cc(S(=O)(=O)O)ccc21; Hyp = O=C(O)[C@@H]1C[C@@H](O)CN1; Nlys = NCCCCNCC(=O)O; Ahx = NCCCCCC(=O)O

Columns and labels:
vitreous bodies and skin = experiment: In vivo uptake in vitreous bodies and skin; conditions: mouse, 2 h post i.v. injection of 2 nmol
Method: Typically, the fluorescence peptides or peptoids were prepared at a dose of 1 nmol (10 µM in 100 µL of 1× PBS buffer) and injected into the tail vein of each mouse 2 h prior to fluorescence imaging with an IVIS Spectrum imager (PerkinElmer Lumina III). For Figure 4, Figures S17 and S18 (Supporting Information) (joint aging and RA) and Figure S27 (Supporting Information), 2 nmol of Cy5‐(NlysO)7 (20 µM in 100 µL of 1× PBS buffer) were i.v. administered to each mouse. For 1‐week‐old neonatal mice, 1 nmol of Cy5‐(NlysO)7 (20 µM in 50 µL of 1× PBS buffer) was intravenously injected into each mouse. All in vivo imaging was performed 2 h post probe injection with the IVIS Spectrum imager (PerkinElmer, fluorescence: ex/em: 620/670 nm, exposure: 1 s, bing: 4, F/Stop: 2; field of view: A/B/C/Z). Mice were anesthesia with 3% isoflurane (RWD, R510‐22‐10) during image acquisition. Hair in the knee areas was removed before fluorescence imaging for mice in Figure 4a and Figure S17 (Supporting Information). The mice were euthanized following the final image acquisition and occasionally imaged again after skin and organ removal. […] All acquired fluorescence images were analyzed using the Living Image software (PerkinElmer). The fluorescence signal from each specimen was measured by quantifying the average radiation efficiency within the selected oval‐shaped regions‐of‐interest.

[1] = Organ fluorescence 2 h post-injection (clearance route); format: in vivo, mouse; conditions: nude mice, organs isolated 2 h post i.v. injection of 1 nmol
Method: Typically, the fluorescence peptides or peptoids were prepared at a dose of 1 nmol (10 µM in 100 µL of 1× PBS buffer) and injected into the tail vein of each mouse 2 h prior to fluorescence imaging with an IVIS Spectrum imager (PerkinElmer Lumina III). For Figure 4, Figures S17 and S18 (Supporting Information) (joint aging and RA) and Figure S27 (Supporting Information), 2 nmol of Cy5‐(NlysO)7 (20 µM in 100 µL of 1× PBS buffer) were i.v. administered to each mouse. For 1‐week‐old neonatal mice, 1 nmol of Cy5‐(NlysO)7 (20 µM in 50 µL of 1× PBS buffer) was intravenously injected into each mouse. All in vivo imaging was performed 2 h post probe injection with the IVIS Spectrum imager (PerkinElmer, fluorescence: ex/em: 620/670 nm, exposure: 1 s, bing: 4, F/Stop: 2; field of view: A/B/C/Z). Mice were anesthesia with 3% isoflurane (RWD, R510‐22‐10) during image acquisition. Hair in the knee areas was removed before fluorescence imaging for mice in Figure 4a and Figure S17 (Supporting Information). The mice were euthanized following the final image acquisition and occasionally imaged again after skin and organ removal. Next, the airways, ankles, ears, paws, knees, tails, spines, and chest ribs were collected, imaged, and saved for subsequent histology analysis. All acquired fluorescence images were analyzed using the Living Image software (PerkinElmer). The fluorescence signal from each specimen was measured by quantifying the average radiation efficiency within the selected oval‐shaped regions‐of‐interest.

[2] = Blood biochemical analysis; format: in vivo, mouse; conditions: C57BL/6J mice, 24 h post i.v. injection of 2 nmol, n = 5
Method: Blood biochemical analysis: Each C57BL/6J mouse (6–8 weeks old) was intravenously injected with 100 µL of PBS or Cy5‐(NlysO)7 (2 nmol in 100 µL 1× PBS buffer per mouse) 24 h prior to blood collection for the biochemical analysis. Biochemical analysis of the blood was performed by Wuhan Servicebio.

[3] = In vitro cartilage uptake (absorption); conditions: after 30 min; 10 mg porcine cartilage slice, 10 µM in 200 µL 1× PBS, room temperature, fluorescence, n = 6
Method: Porcine cartilage was freshly harvested from the articular cartilage of an adult pig's knee joint obtained from a local slaughterhouse. Porcine cartilage plugs (diameter: 6 mm) were excised using an osteotomy drill with constant rinsing with PBS buffer for cooling. All solutions in the experiments with unfixed porcine cartilage samples (e.g., Figure 2d–f; Figures S5 and S6, Supporting Information) contained 100 U mL^−1 penicillin and 0.1 mg mL^−1 streptomycin (Solarbio, P1400) to prevent bacterial growth.
The porcine cartilage plugs were carefully cut into small cuboids with a uniform size (≈5 × 1 × 2 mm, ≈10 mg by wet weight). […] Each incubation bath was aliquoted so its fluorescence FN1 of the incubation bath was measured without the cartilage samples using a microplate reader (PerkinElmer EnVision; excitation: 646 nm, emission: 662 nm) at specified time points (N1 = 0.5, 1, 2, 4, 6, 8, 10, 12, and 24 h) to estimate the absorption of the probes (Figure 2d; Figure S5, Supporting Information), while fluorescence levels of the compound solutions pre‐measured before incubation were recorded as Fpre. The unabsorbed percent was calculated as FN1/Fpre×100%, and the final fluorescence measurement after 24 h of absorption was recorded as F24h. […]

Compound | in vivo fluorescence uptake in vitreous bodies and skin compared to cartilage (vitreous bodies and skin) | clearance route from organ fluorescence [1] | blood biochemical analytes (ALT, AST, TBIL, UREA, BUN, CREA) vs PBS group [2] | unabsorbed percent of starting concentration remaining in solution [3]
CN1/C(=C/C=C/C=C/C2=[N+](CCCCCC(=O)NCCCCCC(=O)N(CCCCN)CC(=O)N3C[C@H](O)C[C@H]3C(=O)N(CCCCN)CC(=O)N3C[C@H](O)C[C@H]3C(=O)N(CCCCN)CC(=O)N3C[C@H](O)C[C@H]3C(=O)N(CCCCN)CC(=O)N3C[C@H](O)C[C@H]3C(=O)N(CCCCN)CC(=O)N3C[C@H](O)C[C@H]3C(=O)N(CCCCN)CC(=O)N3C[C@H](O)C[C@H]3C(=O)N(CCCCN)CC(=O)N3C[C@H](O)C[C@H]3C(N)=O)c3ccc(S(=O)(=O)[O-])cc3C2(C)C)C(C)(C)c2cc(S(=O)(=O)O)ccc21 [Cy5‐(NlysO)7] ({X1-Ahx}-[Nlys][Hyp][Nlys][Hyp][Nlys][Hyp][Nlys][Hyp][Nlys][Hyp][Nlys][Hyp][Nlys][Hyp]-NH2) | virtually no in vivo fluorescence uptake | might be mainly cleared through kidneys | no key analytes from the Cy5‐(NlysO)7 group significantly differed | 
CN1/C(=C/C=C/C=C/C2=[N+](CCCCCC(=O)NCCCCCC(=O)N[C@@H](CCCNC(=N)N)C(=O)N[C@@H](CCCNC(=N)N)C(=O)N[C@@H](CCCNC(=N)N)C(=O)N[C@@H](CCCNC(=N)N)C(=O)N[C@@H](CCCNC(=N)N)C(=O)N[C@@H](CCCNC(=N)N)C(=O)N[C@@H](CCCNC(=N)N)C(=O)N[C@@H](CCCNC(=N)N)C(N)=O)c3ccc(S(=O)(=O)[O-])cc3C2(C)C)C(C)(C)c2cc(S(=O)(=O)O)ccc21 [Cy5‐R8, reference compound] |  |  |  | ≈ 20%
